# Test results: patent publication US8598193B2, “Polycyclic agents for the treatment of respiratory syncytial virus infections” (Biota Scientific Management Pty Ltd., priority 2003, dated 2013)
# System: RSV A2
# Experiment: RSV antiviral cytopathic effect (CPE) assay, MTT readout
# Type: cell-based
# Conditions: human respiratory syncytial virus, HEp-2, 120 h; RSV A2 in HEp2 cells, CPE assay, MTT, approx. 5 days; read-out: Activity Range (RSV A2 antiviral EC50), compounds of Table 2
# Method: Method Q: RSV Antiviral Assay Protocol
# Compounds of the invention were tested for their antiviral activity against respiratory syncytial virus. Cytopathic effect (CPE) assays were performed essentially as described in the literature (see for example Watanabe et al, 1. Virological Methods, 1994, 48, 257). Serial dilutions of the test compounds were made in assay medium. HEp2 cells (1.0×10^4 cells/well) were infected with RSV at a low multiplicity of infection (e.g. RSV A2 at an moi of 0.01) and 100 μL added to cultures assessing antiviral activity and cells without virus added to those assessing compound cytotoxicity. Assays were incubated for approximately 5 days at 37° C. in a 5% CO2 atmosphere. The extent of CPE was determined via metabolism of the vital dye 3-(4,5-dimethylthiaxol-2-yl)-2,5-diphenyltetrazolium bromide (MTT). A 3 mg/ml stock of MTT was made in assay medium and 100 μL added to each well, taking the final MTT concentration to […]. After 2 hours incubation at 37° C., the media-MTT solution was removed and 200 μL of isopropanol was added to dissolve the vital dye crystals. Plates were shaken and the absorbance read at 540 nm. The compound concentrations that inhibited CPE by 50% (EC50) and developed cytotoxicity (CC50) were calculated using an Excel curve fitting program.
row,Structure (SMILES),EC50 [µg/mL]
1,Cn1cc(C(=O)N2CCN3C(=O)c4ccccc4C32c2ccc(Cl)cc2)c(C(F)(F)F)n1 (stereo not shown) [Compound 333],< 0.1
2,O=C1c2ccccc2C2(c3ccc(Cl)cc3)N1CCN2C(=O)c1cccc2c1OCCO2 (stereo not shown) [Compound 245],0.25 to 1
3,O=C(c1ccc(F)nc1)N1CCN2C(=O)c3ccccc3C12c1ccc(OCC2CC2)cc1 (stereo not shown) [Compound 316],< 0.1
4,O=C(c1csc(-c2cccs2)n1)N1CCN2C(=O)c3ccccc3C12c1ccc(Cl)cc1 (stereo not shown) [Compound 324],0.1 to 0.25
5,O=C(c1csnn1)N1CCN2C(=O)c3ccccc3C12c1ccc(Cl)cc1 (stereo not shown) [Compound 243],< 0.1
6,O=C1c2ccccc2C2(c3ccc(Cl)cc3)N1CCN2C(=O)[C@@H]1CSC(c2cccs2)=N1 (stereo partly shown) [Compound 323],0.25 to 1
7,CCC(=O)N1CCN2C(=O)c3ccccc3C12c1ccc(C(F)(F)F)cc1 (stereo not shown) [Compound 305],0.25 to 1
8,O=C(CC1CCCC1)N1CCN2C(=O)c3ccccc3C12c1ccc(Cl)cc1 (stereo not shown) [Compound 216],0.25 to 1
9,Cc1nonc1C(=O)N1CCN2C(=O)c3ccccc3C21c1ccc(Cl)cc1 (stereo not shown) [Compound 335],< 0.1
10,CC(C)CC(=O)N1CCN2C(=O)c3ccccc3C12c1ccc(Cl)cc1 (stereo not shown) [Compound 214],0.25 to 1
11,COc1ccc(-c2ocnc2C(=O)N2CCN3C(=O)c4ccccc4C32c2ccc(Cl)cc2)cc1 (stereo not shown) [Compound 332],< 0.1
12,NCCNc1ccc(C(=O)N2CCN3C(=O)c4ccccc4C23c2ccc(Cl)cc2)cn1 (stereo not shown) [Compound 320],0.25 to 1
13,Cc1cc(C(=O)N2CCN3C(=O)c4ccccc4C32c2ccc(Cl)cc2)c(C)o1 (stereo not shown) [Compound 325],< 0.1
14,O=C(CSc1ccccn1)N1CCN2C(=O)c3ccccc3C12c1ccc(Cl)cc1 (stereo not shown) [Compound 299],0.25 to 1

# Second part, the molecule after the results:
row,EC50 [µg/mL],Structure (SMILES)
1,0.25 to 1,O=C(CCCc1ccccc1)N1CCN2C(=O)c3ccccc3C12c1ccc(Cl)cc1 (stereo not shown) [Compound 227]
2,0.1 to 0.25,O=C(c1ccc(F)cc1)N1CCN2C(=O)c3ccccc3C12c1ccc(C(F)(F)F)cc1 (stereo not shown) [Compound 307]
3,0.25 to 1,NC(=O)COc1ccc(C23c4ccccc4C(=O)N2CCN3C(=O)c2ccc(F)cc2)cc1 (stereo not shown) [Compound 266]
4,0.1 to 0.25,COCCOc1ccc(C23c4ccccc4C(=O)N2CCN3C(=O)c2ccc(F)cc2)cc1 (stereo not shown) [Compound 238]
5,0.25 to 1,COc1ccc(CNC(=O)N2CCN3C(=O)c4ccccc4C23c2ccc(Cl)cc2)cc1 (stereo not shown) [Compound 180]
6,0.25 to 1,CCCc1ccc(C23c4ccccc4C(=O)N2CCN3C(=O)CC)cc1 (stereo not shown) [Compound 199]
7,0.25 to 1,CC(=O)COc1ccc(C23c4ccccc4C(=O)N2CCN3C(=O)c2ccc(F)cc2)cc1 (stereo not shown) [Compound 268]
8,0.1 to 0.25,COc1ccc(NC(=O)N2CCN3C(=O)c4ccccc4C23c2ccc(C)cc2)cc1 (stereo not shown) [Compound 86]
9,0.1 to 0.25,O=C(Cc1cccc(Br)c1)N1CCN2C(=O)c3ccccc3C12c1ccc(Cl)cc1 (stereo not shown) [Compound 242]
10,0.25 to 1,O=C(c1ccc(F)cc1)N1CCN2C(=O)c3ccccc3C12c1ccc(F)cc1 (stereo not shown) [Compound 231]
11,0.1 to 0.25,CCOc1ccc(C23c4ccccc4C(=O)N2CCN3C(=O)c2ccc(F)cc2)cc1 (stereo not shown) [Compound 308]
12,0.1 to 0.25,Cc1noc(C)c1COc1ccc(C23c4ccccc4C(=O)N2CCN3C(=O)c2ccc(F)cc2)cc1 (stereo not shown) [Compound 263]
13,0.25 to 1,CC(C)c1ccc(C23c4ccccc4C(=O)N2CCN3C(=O)c2ccc(F)cc2)cc1 (stereo not shown) [Compound 203]
14,0.1 to 0.25,O=C(c1cccc(Cl)n1)N1CCN2C(=O)c3ccccc3C12c1ccc(Cl)cc1 (stereo not shown) [Compound 330]
15,0.25 to 1,COc1ccc(CCC(=O)N2CCN3C(=O)c4ccccc4C23c2ccc(Cl)cc2)cc1 (stereo not shown) [Compound 211]
16,0.1 to 0.25,O=C(c1ccoc1)N1CCN2C(=O)c3ccccc3C12c1ccc(Cl)cc1 (stereo not shown) [Compound 326]
17,< 0.1,O=C(c1ccco1)N1CCN2C(=O)c3ccccc3C12c1ccc(Cl)cc1 (stereo not shown) [Compound 219]
18,< 0.1,Cc1ccc(C23c4ccccc4C(=O)N2CCN3C(=O)NCc2ccc(F)cc2)cc1 (stereo not shown) [Compound 88]
19,0.25 to 1,O=C(c1ccc(Cl)nc1)N1CCN2C(=O)c3ccccc3C12c1ccc(Cl)cc1 (stereo not shown) [Compound 312]
20,< 0.1,O=C(c1cccnc1)N1CCN2C(=O)c3ccccc3C12c1ccc(Cl)cc1 (stereo not shown) [Compound 230]
21,0.1 to 0.25,CCOc1ccsc1C(=O)N1CCN2C(=O)c3ccccc3C21c1ccc(Cl)cc1 (stereo not shown) [Compound 329]
22,0.1 to 0.25,O=C(c1ccc(F)cc1)N1CCN2C(=O)c3ccccc3C12c1ccc(OCc2ccccc2)cc1 (stereo not shown) [Compound 262]
23,0.25 to 1,CCC(=O)N1CCN2C(=O)c3ccccc3C12c1ccc(C)cc1 (stereo not shown) [Compound 117]
24,< 0.1,O=C(c1ccc(F)cc1)N1CCN2C(=O)c3ccccc3C12c1ccc(OCC2CC2)cc1 (stereo not shown) [Compound 267]
25,0.25 to 1,Cc1ccc(CNC(=O)N2CCN3C(=O)c4ccccc4C23c2ccc(C)cc2)cc1 (stereo not shown) [Compound 178]

# Same assay, conditions: human respiratory syncytial virus, HEp-2, 120 h; RSV A2 in HEp2 cells, CPE assay, MTT, approx. 5 days; read-out: Activity Range (RSV A2 antiviral EC50), compounds of Table 3
row,Structure (SMILES),EC50 [µg/mL]
1,CCCSc1ncccc1C(=O)N1CCN2C(=O)c3ccncc3C21c1ccc(Cl)cc1 (stereo not shown) [Compound 401],0.1 to 0.25
2,COc1ccc(-c2ocnc2C(=O)N2CCN3C(=O)c4ccncc4C32c2ccc(Cl)cc2)cc1 (stereo not shown) [Compound 462],< 0.1
3,COc1c(C(=O)N2CCN3C(=O)c4ccncc4C32c2ccc(Cl)cc2)csc1Br (stereo not shown) [Compound 438],0.25 to 1
4,Cc1nc(-c2ccccc2)sc1C(=O)N1CCN2C(=O)c3ccncc3C21c1ccc(Cl)cc1 (stereo not shown) [Compound 468],0.25 to 1
5,Cc1cc(C(=O)N2CCN3C(=O)c4ccncc4C23c2ccc(Cl)cc2)nn1C (stereo not shown) [Compound 421],0.25 to 1
6,CC(C)c1sc(Cl)nc1C(=O)N1CCN2C(=O)c3ccncc3C21c1ccc(Cl)cc1 (stereo not shown) [Compound 474],0.1 to 0.25
7,CCSc1ncccc1C(=O)N1CCN2C(=O)c3ccncc3C21c1ccc(Cl)cc1 (stereo not shown) [Compound 397],0.1 to 0.25
8,O=C(c1cccs1)N1CCN2C(=O)c3ccncc3C12c1ccc(Cl)cc1 (stereo not shown) [Compound 431],< 0.1
9,CSc1ncc(Cl)c(C(=O)N2CCN3C(=O)c4ccncc4C32c2ccc(Cl)cc2)n1 (stereo not shown) [Compound 454],0.1 to 0.25
10,O=C(c1cncnc1)N1CCN2C(=O)c3ccncc3C12c1ccc(Cl)cc1 (stereo not shown) [Compound 481],0.25 to 1
11,O=C(c1cccnc1)N1CCN2C(=O)c3ccncc3C12c1ccc(Cl)cc1 (stereo not shown) [Compound 363],< 0.1
12,Cc1nc(C(=O)N2CCN3C(=O)c4ccncc4C23c2ccc(Cl)cc2)cs1 (stereo not shown) [Compound 444],0.1 to 0.25
13,COc1ccc(-c2cc(C(=O)N3CCN4C(=O)c5ccncc5C34c3ccc(Cl)cc3)on2)cc1 (stereo not shown) [Compound 465],0.25 to 1
14,O=C(c1ccc(F)nc1)N1CCN2C(=O)c3ncccc3C12c1ccc(Cl)cc1 (stereo not shown) [Compound 370],0.25 to 1
15,O=C(c1csc(-c2ccccc2)n1)N1CCN2C(=O)c3ccncc3C12c1ccc(Cl)cc1 (stereo not shown) [Compound 391],< 0.1
16,O=C(c1ccc(Cl)nc1)N1CCN2C(=O)c3ccncc3C12c1ccc(Cl)cc1 (stereo not shown) [Compound 364],0.25 to 1

row,Structure (SMILES),EC50 [µg/mL]
1,O=C(c1csc(-c2cccs2)n1)N1CCN2C(=O)c3ccncc3C12c1ccc(Cl)cc1 (stereo not shown) [Compound 377],< 0.1
2,CCOc1ccsc1C(=O)N1CCN2C(=O)c3ccncc3C21c1ccc(Cl)cc1 (stereo not shown) [Compound 449],< 0.1
3,O=C(c1ccc(C#Cc2ccccc2)o1)N1CCN2C(=O)c3ccncc3C12c1ccc(Cl)cc1 (stereo not shown) [Compound 416],0.25 to 1
4,CSc1ncccc1C(=O)N1CCN2C(=O)c3ccncc3C21c1ccc(Cl)cc1 (stereo not shown) [Compound 398],0.1 to 0.25
5,O=C(c1cscn1)N1CCN2C(=O)c3ccncc3C12c1ccc(Cl)cc1 (stereo not shown) [Compound 483],< 0.1
6,O=C1c2ccncc2C2(c3ccc(Cl)cc3)N1CCN2C(=O)c1cccnc1Oc1ccc(Cl)cc1 (stereo not shown) [Compound 395],0.25 to 1
7,O=C(c1csc([N+](=O)[O-])c1)N1CCN2C(=O)c3ccncc3C12c1ccc(Cl)cc1 (stereo not shown) [Compound 434],0.25 to 1
8,Cc1nc(-c2cnccn2)sc1C(=O)N1CCN2C(=O)c3ccncc3C21c1ccc(Cl)cc1 (stereo not shown) [Compound 458],0.1 to 0.25
9,O=C(c1csnn1)N1CCN2C(=O)c3ccncc3C12c1ccc(Cl)cc1 (stereo not shown) [Compound 456],< 0.1
10,Cc1cc(C(=O)N2CCN3C(=O)c4ccncc4C23c2ccc(Cl)cc2)no1 (stereo not shown) [Compound 382],0.25 to 1
11,COc1c(C(=O)N2CCN3C(=O)c4ccncc4C32c2ccc(Cl)cc2)csc1Cl (stereo not shown) [Compound 436],0.1 to 0.25
12,O=C(c1ccccn1)N1CCN2C(=O)c3ccncc3C12c1ccc(Cl)cc1 (stereo not shown) [Compound 455],0.25 to 1
13,O=C(c1ccc(Br)s1)N1CCN2C(=O)c3ccncc3C12c1ccc(Cl)cc1 (stereo not shown) [Compound 437],0.25 to 1
14,Cc1nnsc1C(=O)N1CCN2C(=O)c3ccncc3C21c1ccc(Cl)cc1 (stereo not shown) [Compound 386],0.1 to 0.25
15,COc1cscc1C(=O)N1CCN2C(=O)c3ccncc3C12c1ccc(Cl)cc1 (stereo not shown) [Compound 441],0.1 to 0.25
16,CCCCC#Cc1cncc(C(=O)N2CCN3C(=O)c4ccncc4C23c2ccc(Cl)cc2)c1 (stereo not shown) [Compound 408],0.25 to 1

# Next, values leading:
row,EC50 [µg/mL],Structure (SMILES)
1,0.25 to 1,CCc1ccc(C23c4c[n+]([O-])ccc4C(=O)N2CCN3C(=O)c2ccc(F)cc2)cc1 (stereo not shown) [Compound 372]
2,0.25 to 1,O=C(c1ccc(F)cc1)N1CCN2C(=O)c3cccnc3C12c1ccc(Cl)cc1 (stereo not shown) [Compound 360]
